From ChEMBL document CHEMBL1154558, “Cytotoxic prenylxanthones from Garcinia bracteata” (J Nat Prod, 2000)
Converted amounts (≈) assume the structure as drawn.

Columns and labels:
[1] = Inhibition of FTase by fluorimetry
KB = test: Cytotoxicity against human KB cells by colorimetric assay; assay type: functional, cell-based

Row | Compound | Activity [1] [µg/mL] | IC50 (KB) [µg/mL]
1 | COc1cc2c(c3c1C(=O)C1=C[C@@H]4C[C@H]5C(C)(C)O[C@](CC=C(C)C)(C4=O)[C@@]15O3)C(C)(C)[C@H](C)O2 | > 10 | 0.8 (≈ 1.67 µM)
2 | C=CC(C)(C)c1c(O)cc(OC)c2c1O[C@]13[C@@H](C2=O)[C@H](OC)[C@@H]2C[C@H]1C(C)(C)O[C@@]3(CC=C(C)C)C2=O | > 10 | 1.5 (≈ 2.94 µM)
3 | C=CC(C)(C)c1c(O)cc(OC)c2c1O[C@@]13C[C@H]4[C@@H](C=C1C2=O)[C@](CC=C(C)C)(OC4(C)C)C3=O | – | 0.2 (≈ 0.418 µM)
4 | C=CC(C)(C)c1c(O)cc(O)c2c1O[C@]13C(=C[C@@H]4C[C@H]1C(C)(C)O[C@@]3(CC=C(C)C)C4=O)C2=O [BRACTATIN] | 4.7 | 0.4 (≈ 0.861 µM)
5 | CC(C)=CC[C@@]12OC(C)(C)[C@@H]3C[C@@H](C=C4C(=O)c5c(O)cc(O)cc5O[C@]431)C2=O | – | 0.8 (≈ 2.02 µM)
6 | C=CC(C)(C)c1c(O)cc(OC)c2c1O[C@]13C(=C[C@@H]4C[C@H]1C(C)(C)O[C@@]3(CC=C(C)C)C4=O)C2=O | > 10 | 0.3 (≈ 0.627 µM)
7 | CC(C)=CC[C@]12OC(C)(C)[C@@H]3C[C@@H](C=C4C(=O)c5c(O)cc6c(c5O[C@]431)C(C)(C)[C@H](C)O6)C2=O [ISOBRACTATIN] | 5.6 | 1.5 (≈ 3.23 µM)
